Measurements from PubChem BioAssay (NCI).
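Protocol summary: plate cells (96-well), add compound at 5 concentrations, incubate 48 h, interpolate endpoints linearly. GI50 is the concentration that inhibits growth by half. TGI: concentration producing complete growth inhibition.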

Assays:
Test in all cases: inhibition of tumour cell growth, NCI panel, 48 h
[1] = tested on: TK-10 renal
[2] = tested on: HOP-92 NSCLC
[3] = tested on: RXF 393 renal
[4] = tested on: NCI-H522 lung
[5] = tested on: U251 CNS
[6] = tested on: KM12 colon
[7] = tested on: OVCAR-4 ovarian
[8] = tested on: NCI/ADR-RES ovarian
[9] = tested on: SR leukemia
[10] = tested on: SF-539 CNS
[11] = tested on: NCI-H23 lung
[12] = tested on: BT-549 breast
[13] = tested on: UACC-62 melanoma
[14] = tested on: MOLT-4 leukemia
[15] = tested on: IGROV1 ovarian
[16] = tested on: COLO 205 colon
[17] = tested on: PC-3 prostate
[18] = tested on: UO-31 renal
[19] = tested on: SNB-19 CNS
[20] = tested on: OVCAR-8 ovarian
[21] = tested on: 786-0 renal
[22] = tested on: UACC-257 melanoma
[23] = tested on: A549 NSCLC
[24] = tested on: NCI-H226 lung
[25] = tested on: A498 renal
[26] = tested on: RPMI-8226 leukemia
[27] = tested on: HL-60(TB) leukemia
[28] = tested on: HCT-116 colon
[29] = tested on: HCT-15 colon
[30] = tested on: OVCAR-5 ovarian
[31] = tested on: SNB-75 CNS
[32] = tested on: MCF7 breast
[33] = tested on: SN12C renal
[34] = tested on: T-47D breast
[35] = tested on: SK-MEL-28 melanoma
[36] = tested on: MDA-MB-231 breast
[37] = tested on: HOP-62 NSCLC
[38] = tested on: HCC-2998 colon
[39] = tested on: SF-295 CNS
[40] = tested on: MDA-MB-435
[41] = tested on: M14 melanoma
[42] = tested on: HS 578T breast
[43] = tested on: SW-620 colon
[44] = tested on: SF-268 CNS
[45] = tested on: SK-MEL-5 melanoma
[46] = tested on: NCI-H460 lung
[47] = tested on: DU-145 prostate
[48] = tested on: ACHN renal
[49] = tested on: SK-MEL-2 melanoma
[50] = tested on: SK-OV-3 ovarian
[51] = tested on: LOX IMVI melanoma
[52] = tested on: CCRF-CEM leukemia
[53] = tested on: OVCAR-3 ovarian
[54] = tested on: CAKI-1 renal
[55] = tested on: EKVX NSCLC
[56] = tested on: HT29 colon
[57] = tested on: K-562 leukemia
[58] = tested on: MALME-3M melanoma

COc1cc(C2C=C(C)N=C3SC=C(C)N32)cc(OC)c1OC (stereo not drawn) was tested, and the GI50 [1] was 2.22 µM, the TGI [1] was 5.61 µM and the GI50 [2] was 2.08 µM. The TGI [2] was 5.95 µM, the GI50 [3] was 1.49 µM and the TGI [3] was 3.14 µM. The GI50 [4] was 0.53 µM, the TGI [4] was 1.81 µM and the GI50 [5] was 0.671 µM. The TGI [5] was 2.79 µM, the GI50 [6] was 1.33 µM and the TGI [6] was 4.55 µM. It also gave a GI50 [7] of 3.99 µM, a TGI [7] greater than 100 µM and a GI50 [8] of 0.454 µM. The TGI [8] was greater than 100 µM, the GI50 [9] was 0.249 µM and the TGI [9] was greater than 100 µM. The GI50 [10] was 0.353 µM, the TGI [10] was 4.6 µM and the GI50 [11] was 1.77 µM. For the same compound, the TGI [11] was 5.41 µM, the GI50 [12] was 0.531 µM and the TGI [12] was 2.09 µM. The GI50 [13] was 0.473 µM, the TGI [13] was 1.87 µM and the GI50 [14] was 0.445 µM. The TGI [14] was greater than 100 µM, the GI50 [15] was 2.22 µM and the TGI [15] was 7.3 µM. For the same compound, the GI50 [16] was 1.32 µM, the TGI [16] was 3.04 µM and the GI50 [17] was 1.56 µM. It also gave a TGI [17] of 5.88 µM, a GI50 [18] of 1.13 µM and a TGI [18] of 2.47 µM. For the same compound, the GI50 [19] was 2.32 µM, the TGI [19] was 15.8 µM and the GI50 [20] was 0.342 µM. It also gave a TGI [20] of 10.1 µM, a GI50 [21] of 0.827 µM and a TGI [21] of 2.67 µM. For the same compound, the GI50 [22] was 1.77 µM, the TGI [22] was 4.89 µM and the GI50 [23] was 2.1 µM. The TGI [23] was 6.56 µM, the GI50 [24] was 1.88 µM and the TGI [24] was 5.81 µM. The GI50 [25] was 2.39 µM, the TGI [25] was 5.64 µM and the GI50 [26] was 0.385 µM. The TGI [26] was 2.57 µM, the GI50 [27] was 0.76 µM and the TGI [27] was 7.09 µM. It also gave a GI50 [28] of 0.171 µM, a TGI [28] of 0.336 µM and a GI50 [29] of 0.246 µM. The TGI [29] was 0.822 µM, the GI50 [30] was 1.55 µM and the TGI [30] was 3.83 µM. For the same compound, the GI50 [31] was 4.3 µM, the TGI [31] was 20.1 µM and the GI50 [32] was 0.333 µM. For the same compound, the TGI [32] was 11.9 µM, the GI50 [33] was 2.23 µM and the TGI [33] was 7.53 µM. The GI50 [34] was 1.91 µM, the TGI [34] was 7.27 µM and the GI50 [35] was 0.507 µM. It also gave a TGI [35] of 2.01 µM, a GI50 [36] of 1.5 µM and a TGI [36] of 9.26 µM. For the same compound, the GI50 [37] was 2.08 µM, the TGI [37] was 4.53 µM and the GI50 [38] was 1.94 µM. For the same compound, the TGI [38] was 3.54 µM, the GI50 [39] was 2.07 µM and the TGI [39] was 6.19 µM. For the same compound, the GI50 [40] was 0.631 µM, the TGI [40] was 6.45 µM and the GI50 [41] was 1.13 µM. It also gave a TGI [41] of 2.89 µM, a GI50 [42] of 2.95 µM and a TGI [42] of 74.2 µM. The GI50 [43] was 0.516 µM, the TGI [43] was 9.43 µM and the GI50 [44] was 1.4 µM. The TGI [44] was 11.4 µM, the GI50 [45] was 1 µM and the TGI [45] was 2.21 µM. The GI50 [46] was 2.11 µM, the TGI [46] was 7.33 µM and the GI50 [47] was 1.81 µM. It also gave a TGI [47] greater than 100 µM, a GI50 [48] of 0.618 µM and a TGI [48] of 3.61 µM. The GI50 [49] was 2.04 µM, the TGI [49] was 4.94 µM and the GI50 [50] was 2.91 µM. For the same compound, the TGI [50] was 8.54 µM, the GI50 [51] was 0.379 µM and the TGI [51] was 1.73 µM. It also gave a GI50 [52] of 0.312 µM, a TGI [52] greater than 100 µM and a GI50 [53] of 0.781 µM. For the same compound, the TGI [53] was 7.66 µM.
COC(=O)COc1ccccc1/C=C1/N=C(c2ccccc2)N(c2c(C)n(C)n(-c3ccccc3)c2=O)C1=O showed a GI50 [1] greater than 100 µM, a TGI [1] greater than 100 µM and a GI50 [2] greater than 100 µM. For the same compound, the TGI [2] was greater than 100 µM, the GI50 [3] was greater than 100 µM and the TGI [3] was greater than 100 µM. It also gave a GI50 [4] of 20 µM, a TGI [4] of 48 µM and a GI50 [5] greater than 100 µM. For the same compound, the TGI [5] was greater than 100 µM, the GI50 [6] was 79.6 µM and the TGI [6] was greater than 100 µM. The GI50 [54] was greater than 100 µM, the TGI [54] was greater than 100 µM and the GI50 [7] was 75.1 µM. It also gave a TGI [7] greater than 100 µM, a GI50 [8] greater than 100 µM and a TGI [8] greater than 100 µM. The GI50 [9] was 31.7 µM, the TGI [9] was greater than 100 µM and the GI50 [10] was greater than 100 µM. The TGI [10] was greater than 100 µM, the GI50 [11] was greater than 100 µM and the TGI [11] was greater than 100 µM. The GI50 [12] was 40.7 µM, the TGI [12] was greater than 100 µM and the GI50 [13] was 83.9 µM. The TGI [13] was greater than 100 µM, the GI50 [55] was greater than 100 µM and the TGI [55] was greater than 100 µM. The GI50 [14] was greater than 100 µM, the TGI [14] was greater than 100 µM and the GI50 [15] was 46.1 µM. For the same compound, the TGI [15] was greater than 100 µM, the GI50 [16] was greater than 100 µM and the TGI [16] was greater than 100 µM. It also gave a GI50 [17] greater than 100 µM, a TGI [17] greater than 100 µM and a GI50 [18] greater than 100 µM. It also gave a TGI [18] greater than 100 µM, a GI50 [19] greater than 100 µM and a TGI [19] greater than 100 µM. It also gave a GI50 [20] greater than 100 µM, a TGI [20] greater than 100 µM and a GI50 [21] greater than 100 µM. The TGI [21] was greater than 100 µM, the GI50 [23] was greater than 100 µM and the TGI [23] was greater than 100 µM. It also gave a GI50 [24] greater than 100 µM, a TGI [24] greater than 100 µM and a GI50 [25] greater than 100 µM. The TGI [25] was greater than 100 µM, the GI50 [26] was 28.9 µM and the TGI [26] was greater than 100 µM. The GI50 [27] was greater than 100 µM, the TGI [27] was greater than 100 µM and the GI50 [28] was greater than 100 µM. It also gave a TGI [28] greater than 100 µM, a GI50 [29] greater than 100 µM and a TGI [29] greater than 100 µM. For the same compound, the GI50 [30] was greater than 100 µM, the TGI [30] was greater than 100 µM and the GI50 [31] was greater than 100 µM. The TGI [31] was greater than 100 µM, the GI50 [32] was 43.4 µM and the TGI [32] was greater than 100 µM. It also gave a GI50 [33] greater than 100 µM, a TGI [33] greater than 100 µM and a GI50 [34] of 30.5 µM. For the same compound, the TGI [34] was greater than 100 µM, the GI50 [35] was greater than 100 µM and the TGI [35] was greater than 100 µM. It also gave a GI50 [36] greater than 100 µM, a TGI [36] greater than 100 µM and a GI50 [37] greater than 100 µM. The TGI [37] was greater than 100 µM, the GI50 [38] was 47.3 µM and the TGI [38] was greater than 100 µM. It also gave a GI50 [39] greater than 100 µM, a TGI [39] greater than 100 µM and a GI50 [40] greater than 100 µM. For the same compound, the TGI [40] was greater than 100 µM, the GI50 [56] was greater than 100 µM and the TGI [56] was greater than 100 µM. For the same compound, the GI50 [41] was greater than 100 µM, the TGI [41] was greater than 100 µM and the GI50 [42] was greater than 100 µM. The TGI [42] was greater than 100 µM, the GI50 [43] was greater than 100 µM and the TGI [43] was greater than 100 µM. It also gave a GI50 [44] greater than 100 µM, a TGI [44] greater than 100 µM and a GI50 [45] greater than 100 µM. It also gave a TGI [45] greater than 100 µM, a GI50 [46] greater than 100 µM and a TGI [46] greater than 100 µM. It also gave a GI50 [57] of 75.1 µM, a TGI [57] greater than 100 µM and a GI50 [47] greater than 100 µM. The TGI [47] was greater than 100 µM, the GI50 [58] was greater than 100 µM and the TGI [58] was greater than 100 µM. For the same compound, the GI50 [48] was greater than 100 µM, the TGI [48] was greater than 100 µM and the GI50 [49] was 25 µM. The TGI [49] was 56.4 µM, the GI50 [50] was greater than 100 µM and the TGI [50] was greater than 100 µM. For the same compound, the GI50 [51] was 76.5 µM, the TGI [51] was greater than 100 µM and the GI50 [53] was 20.9 µM. It also gave a TGI [53] of 50.9 µM.
